The source of these data is patent US8624027B2, “Combination therapy for treating cancer and diagnostic assays for use therein” (AbbVie Inc., priority 2005, dated 2014).

In one series the test system is HCT116 tumors. Put plainly: HCT116 tumor xenograft in mice. Type of series: in vivo.
A short description of series [1]: Pharmacokinetic evaluation in rat. The format is in vivo. The note with it: male, Sprague-Dawley, plasma, single 5 mg/kg oral dose, Table 1, read-out: Pharmacokinetic area under the plasma concentration Curve (rat) AUC0-∞. The method in brief:
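Male Sprague-Dawley rats (n=3/group) received a single 2 mg/kg IV (jugular slow bolus) or 5 mg/kg oral gavage dose in 10% DMSO/PEG-400; tail-vein plasma sampled to 24 h. Acetonitrile-precipitated plasma quantified by LC-MS/MS (LOQ 0.01 μg/mL); AUC0-∞ by linear trapezoidal rule plus Ct/β extrapolation.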

The next series concerns B-cell lymphoma. Put plainly: Oral efficacy of EXAMPLE 1 in combination therapy, antitumorigenesis on B-cell lymphoma. Type of series: in vivo.
The subject of a further series is BAX and BAK. Put plainly: BAX and BAK activation, immunoprecipitation of active conformers. The format is cell-based, human. The note with it: HCT116, D54MG, SW620, EJ1 cells made polyploid with 200 nM AZD1152 72 hours, then 1 μM ABT-263. The method, then: HCT116 cells (FIG. 11A) were treated with DMSO or 200 nM AZD1152 for 72 hours followed by 2 hours with 1 μM ABT-263. Conformationally active BAK or BAX was immunoprecipitated and detected by immunoblotting. D54MG and HCT116 cells (FIG. 11B) were treated DMSO or 200 nM AZD1152 for 72 hours prior to the addition of 1 μM ABT-263 for 4 hours. Conformationally active BAK or BAX was immunoprecipitated and detected by immunoblotting (top and middle panel). Cell lysates were also fractionated and Cytochrome C release into the cytosolic fraction was detected by immunoblotting. HCT116, SW620, and D54MG cells (FIG. 11C) were treated with DMSO (untreated) or 200 nM AZD1152 (AZD1152) for 72 hours and the expression of Bcl-2 network components were detected by immunoblotting (FIG. 11D-FIG. 11E) HCT116 cells were treated as in FIG. 11B. Endogenous Bcl-XL and Mcl-1 were immunoprecipitated, and the Bcl-2 network components in the immunecomplexes were detected by immunoblotting.
FIG. 14 BAK and BAX activation in tumor cell lines. D54MG, SW620, and EJ1 cells were treated as in FIG. 17B. Conformationally active BAK and BAX was immunoprecipitated and detected by immunoblotting.
Cell lysates were either prepared using a CHAPS lysis buffer (10 mM HEPES, pH 7.4, 150 mM NaCl, 1% CHAPS) or a cell extraction buffer containing 1% Triton X-100, 0.1% SDS, and 0.5% deoxycholate (Invitrogen). […]

The next series relates to HCT116 cells. Put plainly: Cell viability of polyploid cells after ABT-263. Type of series: cell-based, human. The note with it: cells made polyploid with 200 nM AZD1152 (with or without washout); 1 μM ABT-263 for 24 hours; not in diploid cells. The method, then:
Cell viability was determined 72 hours post-transfection. The red curve represents a synergistic combination. […] HCT116 cells (FIG. 10C-FIG. 10F) were treated for 24 hours with DMSO or 200 nM AZD1152. AZD1152 was then either left in the culture medium (AZD 1152) or washed out by replacing the medium with drug-free growth medium (AZD 1152 washout).
Generally, cells were seeded at >90% viability (as determined by trypan blue exclusion) into 96-well plates overnight, treated with compounds or siRNAs for indicated duration, and the overall cell viability was determined by measuring luminescence.

For the compound `CC1(C)CCC(c2ccc(Cl)cc2)=C(CN2CCN(c3ccc(C(=O)NS(=O)(=O)c4ccc(N[C@H](CCN5CCOCC5)CSc5ccccc5)c(S(=O)(=O)C(F)(F)F)c4)cc3)CC2)C1` [Example 1, N-(4-(4-((2-(4-chlorophenyl)-5,5-dimethyl-1-cyclohex-1-en-1-yl)methyl)piperazin-1-yl)benzoyl)-4-(((1R)-3-(morpholin-4-yl)-1-((phenylsulfanyl)methyl)propyl)amino)-3-((trifluoromethyl)sulfonyl)benzenesulfonamide], in the series with HCT116 tumors (ABT-263 75 mkd PO in tumors from mice pretreated 3 days with AZD1152, not in naive tumors), the “time to detection of active BAX conformer in tumors” value is no more than 4 h. Further, in the series on HCT116 tumors (HCT116 colon carcinoma model), the “persistence of tumor regression, combination regimen of AZD1152/ABT-263” value is “at least 2 weeks”. In addition, the “antitumor efficacy, combination regimen of AZD1152/ABT-263” value in the series with HCT116 tumors (HCT116 colon carcinoma model, tumors ~0.5 gram) was “rapid and more sustained tumor regression”. Also, in series [1], the AUC(0-inf) amounted to 5.01 µM·h. Also, the “efficacy of cytotoxic agents during combination therapy” value in the series on B-cell lymphoma (EXAMPLE 1 orally with etoposide, vincristine, CHOP, rituximab, rapamycin) was “synergistically enhanced efficacy”. Further, the complete tumor regression was determined as 70% in the series with B-cell lymphoma (combination of EXAMPLE 1 and rapamycin); 70% in the series on B-cell lymphoma (combination of EXAMPLE 1 and rituximab); 10% in the series on B-cell lymphoma (combination of EXAMPLE 1 and vincristine). Besides, the “BAX and BAK activation in polyploid cells” value in the series with BAX and BAK is “rapidly and synergistically induced BAX and BAK activation”. The “cell viability of polyploid cells” value in the series on HCT116 cells was “loss of viability”.
